The subject of the test is SOX2. Description: Screen of a library of FDA-approved drugs for SOX2 antibody staining in A375 cells treated with PLX4720 and AZD6244. The following applies: for cor. loess: normalized and geometry-corrected (loess) signal; for norm: signal after plate normalization.
Setting [1] is: A375 cells, 5 uM test drug with 1 uM PLX4720 and 0.5 uM AZD6244, 24 h.
Where [2] appears, read: A375 cells, 5 uM test drug with 1 uM PLX4720 and 0.5 uM AZD6244, 24 h, raw signal (ratio of FL2 SOX2 antibody and FL3 nuclear staining), screen run in duplicate.
The mark [3] stands for this setting: Z-test against negative controls (DMSO), single dose 5 uM.

Values joined by “and” are separate entries in the source; they are usually repeats but may differ in a detail not shown here. Equal values may be shown once. Where a name gives a salt, the structure may show the parent alone. Read-outs that look alike come from different tables or passages of the source.

Under setting [1], `CCN1CCN(Cc2ccc(Nc3ncc(F)c(-c4cc(F)c5nc(C)n(C(C)C)c5c4)n3)nc2)CC1` [LY2835219] returned a cor. loess of 1.234 and a norm of 1.024. For the same compound, the raw under setting [2] was 0.963. The same compound returned a z under setting [3] of 4.755.
For `CN1C[C@H](CNC(=O)OCc2ccccc2)C[C@@H]2c3cccc4c3c(cn4C)C[C@H]21` [METERGOUNE] the same measures were 0.4209, 0.4023, 0.9793 and 4.666.
The corresponding values for `Cc1cc(C(C)(C)CC(C)(C)C)ccc1OCCOCC[N+](C)(C)Cc1ccccc1.[Cl-]` [METHYLBENZETHONIUM CHLORIDE] are 0.2976, 0.3484, 0.9826 and 4.049.
The corresponding values for `CN(C)c1ccc2nc3ccc(=[N+](C)C)cc-3sc2c1` [METHYLENE BLUE] are 0.5193, 0.5531, 0.9751 and 3.072.
Under setting [1], `C[C@H]1C[C@@H]2[C@H]([C@@H](O)C[C@@]3(C)[C@H]2CC[C@]3(O)C(=O)COC(=O)CCC(=O)O)[C@@]2(C)C=CC(=O)C=C12` [METHYLPREDNISOLONE SODIUM SUCCINATE] showed a cor. loess of 0.4008 and a norm of 0.4166. The raw under setting [2] is 0.9806. This compound also came in with a z under setting [3] of 5.452.
Take `O=C(Nc1ccc([N+](=O)[O-])cc1Cl)c1cc(Cl)ccc1O` [NICLOSAMIDE]: under setting [1], the cor. loess stood at 0.7224 and the norm was 0.7648. Further, under setting [2], the raw amounted to 0.97. The z under setting [3] is given as 9.828.
As for `COC(=O)Nc1nc2ccc(C(=O)c3cccs3)cc2[nH]1` [NOCODAZOLE], under setting [1], the cor. loess is listed as 0.5311 and the norm was determined as 0.5009. In addition, the raw under setting [2] was found to be 0.9766. Under setting [3], this compound gave a z of 3.142.
The corresponding values for `CC(=O)c1cc2c(o1)C(=O)c1ccccc1C2=O` [Napabucasin] are 0.8204, 0.8869, 0.9658 and 6.402.
The corresponding values for `CCOc1cc2ncc(C#N)c(Nc3ccc(OCc4ccccn4)c(Cl)c3)c2cc1NC(=O)/C=C/CN(C)C` [Neratinib (HKI-272), Neratinib] are 4.182, 4.156, 0.9044 and 16.11.
For `COC(=O)c1ccc2c(c1)NC(=O)/C2=C(\Nc1ccc(N(C)C(=O)CN2CCN(C)CC2)cc1)c1ccccc1` [Nintedanib (BIBF 1120), Nintedanib] the same measures were 0.5485, 0.6171, 0.9744 and 4.28.
In the case of `CCCOc1ccc2nc(NC(=O)OC)[nH]c2c1` [OXIBENDAZOLE], under setting [1], the cor. loess was 0.4781 and the norm amounted to 0.5578. For the same compound, the raw under setting [2] stood at 0.9763. In addition, the z under setting [3] was 6.505.
The corresponding values for `CCNC1(C(N)=O)CCN(c2ncnc3c2nc(-c2ccccc2Cl)n3-c2ccc(Cl)cc2)CC1` [Otenabant (CP-945598) HCl] are 1.069, 0.8357, 0.9665 and 4.116.
The corresponding values for `CC(=O)O[C@H]1C(=O)[C@@]2(C)[C@H]([C@H](OC(=O)c3ccccc3)[C@]3(O)C[C@H](OC(=O)[C@H](O)[C@@H](NC(=O)c4ccccc4)c4ccccc4)C(C)=C1C3(C)C)[C@]1(OC(C)=O)CO[C@@H]1C[C@@H]2O` [PACLITAXEL] are 0.341, 0.3501, 0.9826 and 4.64.
The corresponding values for `OC1(c2ccc(Cl)c(C(F)(F)F)c2)CCN(CCCC(c2ccc(F)cc2)c2ccc(F)cc2)CC1` [PENFLURIDOL] are 2.248, 2.491, 0.9179 and 30.59.
Under setting [1], `C1CCC(C(CC2CCCCN2)C2CCCCC2)CC1` (centres unmarked) [PERHEXILINE MALEATE] gave a cor. loess of 0.3464 and a norm of 0.4809. The raw under setting [2] is on record as 0.9786. Further, under setting [3], the z is given as 4.713.
For `CCOC(=O)O[C@]1(C(=O)COC(=O)CC)CC[C@H]2[C@@H]3CCC4=CC(=O)C=C[C@]4(C)[C@H]3[C@@H](O)C[C@@]21C` [PREDNICARBATE] the same measures were 0.3992, 0.4403, 0.9782 and 4.425.
The corresponding values for `CC(=O)OCC(=O)[C@@]1(O)CC[C@H]2[C@@H]3CCC4=CC(=O)C=C[C@]4(C)[C@H]3[C@@H](O)C[C@@]21C` [PREDNISOLONE ACETATE] are 0.4697, 0.4997, 0.9772 and 3.871.
For `Nc1ccc2cc3ccc(N)cc3nc2c1` [PROFLAVINE HEMISULFATE] the same measures were 0.3381, 0.2862, 0.9828 and 3.749.
As for `C[C@@H]1O[C@@H](O[C@@H]2C=C3CC[C@@H]4[C@H](CC[C@]5(C)[C@@H](c6ccc(=O)oc6)CC[C@]45O)[C@@]3(C)CC2)[C@H](O)[C@H](O)[C@H]1O` [PROSCILLARIDIN A], under setting [1], the cor. loess was determined as 0.5083 and the norm is 0.4294. Further, the raw under setting [2] was found to be 0.9787. Also, the z under setting [3] amounted to 3.007.
For the compound `[O-][n+]1ccccc1[S-].[O-][n+]1ccccc1[S-].[Zn+2]` [PYRITHIONE ZINC], the raw was 0.8268 and 0.898; the z was 15.67 and 26.13.
For the compound `CCOc1cc2ncc(C#N)c(Nc3ccc(F)c(Cl)c3)c2cc1NC(=O)/C=C/CN(C)C` [Pelitinib (EKB-569), Pelitinib], under setting [1], the cor. loess came to 0.7376 and the norm came out at 0.828. Also, the raw under setting [2] came out at 0.9677. The z under setting [3] turned out to be 5.755.
The corresponding values for `CC(C)COc1ccc(CNC(=O)N(Cc2ccc(F)cc2)C2CCN(C)CC2)cc1` [Pimavanserin] are 0.7376, 0.7906, 0.9689 and 5.755.
For `Cc1ccc(C(=O)Nc2ccc(CN3CCN(C)CC3)c(C(F)(F)F)c2)cc1C#Cc1cnc2cccnn12` [Ponatinib (AP24534), Ponatinib] the same measures were 0.6841, 0.7518, 0.9701 and 5.338.
The corresponding values for `CO[C@H]1/C=C/O[C@@]2(C)Oc3c(C)c(O)c4c(O)c(c(/C=N/N5CCN(C)CC5)c(O)c4c3C2=O)NC(=O)/C(C)=C\C=C\[C@H](C)[C@H](O)[C@@H](C)[C@@H](O)[C@@H](C)[C@H](OC(C)=O)[C@@H]1C` [RIFAMPIN] are 0.4025, 0.4925, 0.9792 and 3.454.
Under setting [1], `CN1CCN(c2c(F)cc3c(=O)c(C(=O)O)cn4c3c2SCC4)CC1` [RUFLOXACIN HYDROCHLORIDE] registered a cor. loess of 0.3991 and a norm of 0.4438. Moreover, the raw under setting [2] is on record as 0.9796. This compound also showed a z under setting [3] of 4.267.
Under setting [1], `Cc1cn(-c2cc(NC(=O)c3ccc(C)c(Nc4nccc(-c5cnccn5)n4)c3)cc(C(F)(F)F)c2)cn1` [Radotinib] yielded a cor. loess of 0.7186 and a norm of 0.7194. The raw under setting [2] is listed as 0.9713. Moreover, the z under setting [3] is on record as 7.683.
The corresponding values for `CN(C)Cc1ccc(S(=O)(=O)n2ccc(/C=C/C(=O)NO)c2)cc1` [Resminostat] are 0.8, 0.8939, 0.9656 and 6.242.
As to `O=C(CCCCCCNC(=O)c1cnc(N(c2ccccc2)c2ccccc2)nc1)NO` [Rocihnostat (ACY-1215), Rocihnostat], under setting [1], the cor. loess stood at 0.6577 and the norm is 0.7378. Also, the raw under setting [2] was 0.9705. In addition, under setting [3], the z came to 5.132.
Under setting [1], `CC[C@@H](C(=O)[C@@H](C)[C@@H](O)[C@H](C)[C@@H]1O[C@@H]([C@@H](CC)C(=O)O)CC[C@@H]1C)[C@H]1O[C@]2(C=C[C@@H](O)[C@]3(CC[C@@](C)([C@H]4CC[C@](O)(CC)[C@H](C)O4)O3)O2)[C@H](C)C[C@@H]1C` [SALINOMYCIN, SODIUM] came in with a cor. loess of 0.802 and a norm of 0.8129. Also, the raw under setting [2] turned out to be 0.9671. For the same compound, the z under setting [3] is 8.891.
For `CO[C@H]1C[C@H](O[C@@H]2/C(C)=C/C[C@@H]3C[C@@H](C[C@]4(CC[C@H](C)[C@@H](C5CCCCC5)O4)O3)OC(=O)[C@@H]3C=C(C)/C(=N/O)[C@H]4OC/C(=C\C=C\[C@@H]2C)[C@]43O)O[C@@H](C)[C@@H]1O` [SELAMECTIN] the same measures were 0.533, 0.5401, 0.9768 and 7.251.
For `CO[C@H]1C[C@@H]2CC[C@@H](C)[C@@](O)(O2)C(=O)C(=O)N2CCCC[C@H]2C(=O)O[C@H]([C@H](C)C[C@@H]2CC[C@@H](O)[C@H](OC)C2)CC(=O)[C@H](C)/C=C(\C)[C@@H](O)[C@@H](OC)C(=O)[C@H](C)C[C@H](C)/C=C/C=C/C=C/1C` [SIROLIMUS] the same measures were 0.3171, 0.4075, 0.9808 and 4.314.
